The source of these data is patent US20240092790A1, “DIHYDROFUROPYRIDINE DERIVATIVES AS RHO- KINASE INHIBITORS” (CHIESI FARMACEUTICI S.P.A., priority 2020, published 2024).

Type in all cases: biochemical
For one experiment, the target named is ROCK1 (Homo sapiens, UniProt Q13464). Briefly: In vitro inhibitory activity assay ROCK1 (ADP-Glo). To be noted: ATP 200 μM, Cheng-Prusoff; read-out: ROCK 1 (Ki, range of activity). The method, boiled down: (§1)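 ROCK1 or ROCK2 preincubated 30 min with compound (1% DMSO) at 25 °C, then run 1 h with 2.5 μM myelin basic protein and 200 μM ATP in Tris pH 7.5/MgCl2 buffer. ADP detected by ADP-Glo luminescence; IC50 from variable-slope fit, converted to Ki by Cheng–Prusoff.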

The next experiment addresses ROCK2 (Homo sapiens, UniProt O75116). Description: In vitro inhibitory activity assay ROCK2 (ADP-Glo). To be noted: ATP 200 μM, Cheng-Prusoff; read-out: ROCK2 (Ki, range of activity). A digest of the protocol:
as §1
(In general: In ADP-Glo the light output rises with the ADP produced.)

For another experiment, the target named is PKA (Homo sapiens, UniProt P17612). Briefly: In vitro inhibitory activity assay for PKA (ADP-Glo), reported as selectivity ratio vs ROCK2. To be noted: Ki value for PKA divided by Ki value of ROCK2. A digest of the protocol:
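ADP-Glo PKA assay at 25° C in 40 mM Tris pH7.5, 20 mM MgCl2, 0.1 mg/ml BSA, 50 μM DTT, 260 μM kemptide, 1% DMSO. Compound preincubated 30 mins with enzyme, then 30 minute reaction at 10 μM ATP final; luminescence read. IC50 from sigmoidal fit, Ki via Cheng-Prusoff, reported as selectivity ratio vs ROCK-2.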

Structures are written as SMILES.

Sequence of ROCK2 (O75116 whole entry): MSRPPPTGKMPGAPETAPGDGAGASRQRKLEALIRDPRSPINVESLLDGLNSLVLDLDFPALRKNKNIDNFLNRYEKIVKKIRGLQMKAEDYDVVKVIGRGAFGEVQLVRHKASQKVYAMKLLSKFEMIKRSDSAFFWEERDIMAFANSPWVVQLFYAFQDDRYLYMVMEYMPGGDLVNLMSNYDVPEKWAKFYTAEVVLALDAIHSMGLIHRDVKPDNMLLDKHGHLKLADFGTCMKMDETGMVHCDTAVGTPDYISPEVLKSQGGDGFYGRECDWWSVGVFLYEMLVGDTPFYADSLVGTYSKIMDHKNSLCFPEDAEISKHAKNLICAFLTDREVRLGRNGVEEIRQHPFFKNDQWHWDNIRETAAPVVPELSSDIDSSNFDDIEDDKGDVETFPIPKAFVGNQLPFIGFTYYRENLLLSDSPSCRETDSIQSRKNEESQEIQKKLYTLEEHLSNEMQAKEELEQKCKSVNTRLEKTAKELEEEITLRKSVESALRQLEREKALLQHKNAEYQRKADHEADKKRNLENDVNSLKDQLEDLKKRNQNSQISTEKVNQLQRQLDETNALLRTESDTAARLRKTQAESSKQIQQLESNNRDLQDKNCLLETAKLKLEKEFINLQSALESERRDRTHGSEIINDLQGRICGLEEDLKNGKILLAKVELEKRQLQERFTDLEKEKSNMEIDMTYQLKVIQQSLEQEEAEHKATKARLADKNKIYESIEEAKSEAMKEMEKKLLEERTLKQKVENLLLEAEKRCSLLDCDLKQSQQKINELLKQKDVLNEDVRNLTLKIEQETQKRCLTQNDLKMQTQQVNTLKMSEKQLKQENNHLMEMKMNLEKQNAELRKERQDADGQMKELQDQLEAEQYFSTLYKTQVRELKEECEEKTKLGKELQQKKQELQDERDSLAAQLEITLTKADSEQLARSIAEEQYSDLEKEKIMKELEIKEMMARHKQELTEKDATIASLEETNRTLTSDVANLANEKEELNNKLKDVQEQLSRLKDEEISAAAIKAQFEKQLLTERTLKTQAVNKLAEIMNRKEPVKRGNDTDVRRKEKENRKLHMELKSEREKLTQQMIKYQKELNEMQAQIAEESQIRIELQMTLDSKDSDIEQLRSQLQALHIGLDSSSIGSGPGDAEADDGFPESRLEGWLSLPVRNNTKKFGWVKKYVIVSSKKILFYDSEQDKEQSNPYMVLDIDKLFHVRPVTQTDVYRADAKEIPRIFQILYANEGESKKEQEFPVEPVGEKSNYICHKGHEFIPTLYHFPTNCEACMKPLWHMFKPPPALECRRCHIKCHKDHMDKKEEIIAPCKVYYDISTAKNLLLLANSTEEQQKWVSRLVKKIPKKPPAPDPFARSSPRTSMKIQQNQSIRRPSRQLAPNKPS
Sequence of ROCK1 (Q13464 whole entry): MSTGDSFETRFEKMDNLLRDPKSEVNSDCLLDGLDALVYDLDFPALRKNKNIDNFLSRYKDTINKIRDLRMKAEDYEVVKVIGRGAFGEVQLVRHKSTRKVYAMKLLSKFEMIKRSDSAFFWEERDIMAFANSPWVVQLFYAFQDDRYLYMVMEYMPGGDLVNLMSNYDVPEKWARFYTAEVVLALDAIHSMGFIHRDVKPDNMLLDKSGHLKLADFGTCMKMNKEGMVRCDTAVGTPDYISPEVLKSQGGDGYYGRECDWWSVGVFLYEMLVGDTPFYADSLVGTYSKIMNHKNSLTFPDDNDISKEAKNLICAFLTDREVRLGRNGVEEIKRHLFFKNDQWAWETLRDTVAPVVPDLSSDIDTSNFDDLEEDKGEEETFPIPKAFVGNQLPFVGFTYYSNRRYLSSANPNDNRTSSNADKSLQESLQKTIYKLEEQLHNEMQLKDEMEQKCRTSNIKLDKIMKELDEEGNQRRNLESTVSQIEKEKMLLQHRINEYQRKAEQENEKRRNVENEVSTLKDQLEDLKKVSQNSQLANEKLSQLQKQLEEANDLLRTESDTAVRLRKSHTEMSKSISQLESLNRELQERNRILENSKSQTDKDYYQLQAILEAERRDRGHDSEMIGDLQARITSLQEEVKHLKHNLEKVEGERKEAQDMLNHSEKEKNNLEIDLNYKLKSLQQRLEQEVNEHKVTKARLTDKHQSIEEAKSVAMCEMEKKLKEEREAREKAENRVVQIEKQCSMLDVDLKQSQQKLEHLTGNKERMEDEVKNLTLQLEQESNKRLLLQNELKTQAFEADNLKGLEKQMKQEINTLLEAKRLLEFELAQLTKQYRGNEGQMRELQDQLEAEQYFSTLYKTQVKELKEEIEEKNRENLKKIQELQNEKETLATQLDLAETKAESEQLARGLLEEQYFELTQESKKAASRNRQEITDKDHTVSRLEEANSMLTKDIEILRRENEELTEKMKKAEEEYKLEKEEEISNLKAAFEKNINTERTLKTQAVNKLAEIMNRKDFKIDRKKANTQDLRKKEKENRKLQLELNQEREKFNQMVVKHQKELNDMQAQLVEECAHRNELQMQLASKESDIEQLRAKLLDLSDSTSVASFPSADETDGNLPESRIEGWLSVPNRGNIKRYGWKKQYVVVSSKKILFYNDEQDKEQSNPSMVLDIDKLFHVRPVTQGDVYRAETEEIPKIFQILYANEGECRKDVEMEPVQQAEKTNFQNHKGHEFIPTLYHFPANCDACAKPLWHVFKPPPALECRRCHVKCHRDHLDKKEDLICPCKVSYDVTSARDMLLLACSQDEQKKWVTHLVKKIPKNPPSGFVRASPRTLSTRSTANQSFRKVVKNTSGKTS

For orientation: Ki means the dissociation constant of the complex between target and ligand, obtained from inhibition or displacement. Take `CNC(=O)c1cc(F)cc(CNc2ncc(-c3ccnc(N)n3)c3c2CCO3)c1` [Example 59, 3-(((7-(2-Aminopyrimidin-4-yl)-2,3-dihydrofuro[3,2-c]pyridin-4-yl)amino)methyl)-5-fluoro-N-methylbenzamide]: the Ki on ROCK1 and at ROCK2 was at most 3 nM in each case. The “Ratio (PKA/ROCK2)” value on PKA is “*** (ratio≥10)”.
With `COCCCNC(=O)c1cc(F)cc(CNc2ncc(-c3ccnc(N)n3)c3c2CCO3)c1` [Example 60, 3-(((7-(2-Aminopyrimidin-4-yl)-2,3-dihydrofuro[3,2-c]pyridin-4-yl)amino)methyl)-5-fluoro-N-(3-methoxypropyl)benzamide], the Ki on ROCK1 and on ROCK2 was at most 3 nM throughout. Besides, the “Ratio (PKA/ROCK2)” value at PKA is “*** (ratio≥10)”.
Turning to `Nc1nccc(-c2cnc(NCc3cc(C(=O)NC4CCOCC4)ccc3F)c3c2OCC3)n1` [Example 61, 3-(((7-(2-Aminopyrimidin-4-yl)-2,3-dihydrofuro[3,2-c]pyridin-4-yl)amino)methyl)-4-fluoro-N-(tetrahydro-2H-pyran-4-yl)benzamide], the Ki at ROCK1 was above 30 nM; at ROCK2, 3 to 30 nM. Further, the “Ratio (PKA/ROCK2)” value at PKA is “*** (ratio≥10)”.
The like results for `COCCCNC(=O)c1ccc(F)c(CNc2ncc(-c3ccnc(N)n3)c3c2CCO3)c1` [Example 62, 3-(((7-(2-Aminopyrimidin-4-yl)-2,3-dihydrofuro[3,2-c]pyridin-4-yl)amino)methyl)-4-fluoro-N-(3-methoxypropyl)benzamide] were, in that order, above 30 nM, 3 to 30 nM and “*** (ratio≥10)”.
The like results for `CNC(=O)c1cccc(CNc2ncc(-c3ccnc(N)n3)c3c2CCO3)n1` [Example 63, 6-(((7-(2-Aminopyrimidin-4-yl)-2,3-dihydrofuro[3,2-c]pyridin-4-yl)amino)methyl)-N-methylpicolinamide] were, in that order, above 30 nM, 3 to 30 nM and “*** (ratio≥10)”.
Taken in the same sequence, the figures for `COCCCC(=O)Nc1cccc(CNc2ncc(-c3ccnc(N)n3)c3c2CCO3)c1` [Example 64, N-(3-(((7-(2-aminopyrimidin-4-yl)-2,3-dihydrofuro[3,2-c]pyridin-4-yl)amino)methyl)phenyl)-4-methoxybutanamide] were 3 to 30 nM, at most 3 nM and “*** (ratio≥10)”.
